Test results from patent publication US10442836B2, “1-(chloromethyl)-2,3-dihydro-1H-benzo[E]indole dimer antibody-drug conjugate compounds, and methods of use and treatment” (priority 2013, dated 2019).

B1: ADC 125: Thio Hu Anti-CD33 15G15.33 HC A118C-MC-MMED-(CBI dimer phos); linker-CBI intermediate 57 (conjugate)
VH: QVQLVQSGAEVKKPGSSVKVSCKASGGIFSNHAISWVRQAPGQGLEWMGGIIPIFGTANYAQKFQGRVTITADESTSTAFMELSSLRSEDTAVYYCAREWADVFDIWGQGTMVTVSS
VL: EIVLTQSPLSLPVTPGEPASISCRSSQSLLHSNGYNYLDWYLQKPGQSPQLLIYLGVNSVSGVPDRFSGSGSGTDFTLKISRVEAEDVGVYYCMQALQTPWTFGQGTKVEIK
B2: ADC 127: Thio Hu Anti-CD33 15G15.33 HC A118C-MC-ED-(CBI dimer DVB diphos); linker-CBI intermediate 66 (conjugate)
VH: B1 VH
VL: B1 VL
B3: ADC 129: Thio Hu Anti-CD33 15G15.33 HC A118C-MC-ED-(CBI dimer DVB phos); linker-CBI intermediate 68 (conjugate)
VH: B1 VH
VL: B1 VL

Key:
EOL-1 cells = experiment: EOL-1 in vitro cell viability (CellTiter-Glo cell proliferation assay); assay type: cell-based, human; conditions: EOL-1 in vitro cell viability at 3 days versus concentrations (μg/ml)
Excerpt: The CellTiter-Glo® Luminescent Cell Viability Assay is a commercially available (Promega Corp., Madison, Wis.), homogeneous assay method based on the recombinant expression of Coleoptera luciferase (U.S. Pat. Nos. 5,583,024; 5,674,713; 5,700,670). This cell proliferation assay determines the number of viable cells in culture based on quantitation of the ATP present, an indicator of metabolically active cells (Crouch et al (1993) J. Immunol. Meth. 160:81-88; U.S. Pat. No. 6,602,677). The CellTiter-Glo® Assay was conducted in 96 well format, making it amenable to automated high-throughput screening (HTS) (Cree et al (1995) AntiCancer Drugs 6:398-404). The homogeneous assay procedure involves adding the single reagent (CellTiter-Glo® Reagent) directly to cells cultured in serum-supplemented medium. Cell washing, removal of medium and multiple pipetting steps are not required. The system detects as few as 15 cells/well in a 384-well format in 10 minutes after adding reagent and mixing. The cells may be treated continuously with ADC, or they may be treated and separated from ADC.
The homogeneous “add-mix-measure” format results in cell lysis and generation of a luminescent signal proportional to the amount of ATP present. The amount of ATP is directly proportional to the number of cells present in culture. […] Viable cells are reflected in relative luminescence units (RLU). […]
Efficacy of ADC was measured by a cell proliferation assay employing the following protocol ([…] GLO™ Luminescent Cell Viability Assay, Promega Corp. Technical Bulletin TB288; Mendoza et al (2002) Cancer Res. 62:5485-5488): • 1. […] The plate was incubated at room temperature for 10 minutes to stabilize the luminescence signal. • 8. Luminescence was recorded and reported in graphs as RLU=relative luminescence units. • Data are plotted as the mean of luminescence for each set of replicates, with standard deviation error bars. […]

Molecule	melting point	cell-killing activity (EOL-1 cells)
CN(CCN(C)C(=O)Oc1cc2c(c3ccccc13)[C@H](CCl)CN2C(=O)CCCC(=O)N1C[C@@H](CCl)c2c1cc(O)c1ccccc21)C(=O)CBr	167 to 170 °C	
CN(CCN(C)C(=O)Oc1cc2c(c3ccccc13)[C@H](CCl)CN2C(=O)CCCC(=O)N1C[C@@H](CCl)c2c1cc(OP(=O)(O)O)c1ccccc21)C(=O)CCCCCN1C(=O)C=CC1=O	191 to 194 °C (dec.)	
CN1CCN(C(=O)Oc2cc3c(c4ccccc24)C(CCl)CN3C(=O)/C=C/c2ccc(/C=C/C(=O)N3C[C@@H](CCl)c4c3cc(OC(=O)N3CCN(C)CC3)c3ccccc43)cc2NC(=O)CCNC(=O)CCCCCN2C(=O)C=CC2=O)CC1 (stereo partly drawn)	268 °C (dec.)	
B1		modest dose response cell-killing activity
B2		potent, dose responsive cell-killing activity
B3		potent, dose responsive cell-killing activity
